# PubChem BioAssay (NCI)
#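 Grown in 96-well plates, cells were treated for 48 hours with each compound at five concentrations. Insufficient inhibition: endpoint recorded as highest concentration tested. Abbreviation: GI50, concentration required for 50% inhibition of growth. TGI is the concentration that stops growth completely.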
# Legend:
# Assay in all cases: growth of human tumour cells (NCI), 48 h
# UACC-62 melanoma = tested on: UACC-62 melanoma
# SK-MEL-28 melanoma = tested on: SK-MEL-28 melanoma
# NCI-H226 lung = tested on: NCI-H226 lung
# COLO 205 colon = tested on: COLO 205 colon
# OVCAR-5 ovarian = tested on: OVCAR-5 ovarian
# SNB-75 CNS = tested on: SNB-75 CNS
# HT29 colon = tested on: HT29 colon
# SN12C renal = tested on: SN12C renal
# M14 melanoma = tested on: M14 melanoma
# NCI/ADR-RES ovarian = tested on: NCI/ADR-RES ovarian
# MCF7 breast = tested on: MCF7 breast
# ACHN renal = tested on: ACHN renal
# SF-268 CNS = tested on: SF-268 CNS
# MDA-MB-435 = tested on: MDA-MB-435
# UACC-257 melanoma = tested on: UACC-257 melanoma
# A549 NSCLC = tested on: A549 NSCLC
# RPMI-8226 leukemia = tested on: RPMI-8226 leukemia
# K-562 leukemia = tested on: K-562 leukemia
# LOX IMVI melanoma = tested on: LOX IMVI melanoma
# NCI-H460 lung = tested on: NCI-H460 lung
# CCRF-CEM leukemia = tested on: CCRF-CEM leukemia
# SF-539 CNS = tested on: SF-539 CNS
# SNB-19 CNS = tested on: SNB-19 CNS
# SK-OV-3 ovarian = tested on: SK-OV-3 ovarian
# U251 CNS = tested on: U251 CNS
# SR leukemia = tested on: SR leukemia
# SK-MEL-2 melanoma = tested on: SK-MEL-2 melanoma
# RXF 393 renal = tested on: RXF 393 renal
# UO-31 renal = tested on: UO-31 renal
# HOP-92 NSCLC = tested on: HOP-92 NSCLC
# OVCAR-3 ovarian = tested on: OVCAR-3 ovarian
# IGROV1 ovarian = tested on: IGROV1 ovarian
# SK-MEL-5 melanoma = tested on: SK-MEL-5 melanoma
# KM12 colon = tested on: KM12 colon
# BT-549 breast = tested on: BT-549 breast
# CAKI-1 renal = tested on: CAKI-1 renal
# HL-60(TB) leukemia = tested on: HL-60(TB) leukemia
# HCT-116 colon = tested on: HCT-116 colon
# HCC-2998 colon = tested on: HCC-2998 colon
# EKVX NSCLC = tested on: EKVX NSCLC
# NCI-H522 lung = tested on: NCI-H522 lung
# NCI-H23 lung = tested on: NCI-H23 lung
# MDA-MB-231 breast = tested on: MDA-MB-231 breast
# OVCAR-8 ovarian = tested on: OVCAR-8 ovarian
# MOLT-4 leukemia = tested on: MOLT-4 leukemia
# HOP-62 NSCLC = tested on: HOP-62 NSCLC
# PC-3 prostate = tested on: PC-3 prostate
# A498 renal = tested on: A498 renal
# DU-145 prostate = tested on: DU-145 prostate
# 786-0 renal = tested on: 786-0 renal
# HS 578T breast = tested on: HS 578T breast
# SF-295 CNS = tested on: SF-295 CNS
# TK-10 renal = tested on: TK-10 renal
# HCT-15 colon = tested on: HCT-15 colon
# SW-620 colon = tested on: SW-620 colon
# OVCAR-4 ovarian = tested on: OVCAR-4 ovarian
# MALME-3M melanoma = tested on: MALME-3M melanoma
# T-47D breast = tested on: T-47D breast
smiles,measurement,setting,value
CS(=O)(=O)c1ccc(Cl)c([N+](=O)[O-])c1,GI50,UACC-62 melanoma,15.1 µM
same,TGI,UACC-62 melanoma,28.6 µM
same,GI50,SK-MEL-28 melanoma,17.9 µM
same,TGI,SK-MEL-28 melanoma,32 µM
same,GI50,NCI-H226 lung,15 µM
same,TGI,NCI-H226 lung,30.3 µM
same,GI50,COLO 205 colon,16.4 µM
same,TGI,COLO 205 colon,33.2 µM
same,GI50,OVCAR-5 ovarian,20.1 µM
same,TGI,OVCAR-5 ovarian,36.1 µM
same,GI50,SNB-75 CNS,15.3 µM
same,TGI,SNB-75 CNS,29.5 µM
same,GI50,HT29 colon,4.63 µM
same,TGI,HT29 colon,17 µM
same,GI50,SN12C renal,13.8 µM
same,TGI,SN12C renal,28.2 µM
same,GI50,M14 melanoma,17 µM
same,TGI,M14 melanoma,31.7 µM
same,GI50,NCI/ADR-RES ovarian,20.8 µM
same,TGI,NCI/ADR-RES ovarian,46.9 µM
same,GI50,MCF7 breast,10.9 µM
same,TGI,MCF7 breast,33.7 µM
same,GI50,ACHN renal,16 µM
same,TGI,ACHN renal,29.7 µM
same,GI50,SF-268 CNS,18.5 µM
same,TGI,SF-268 CNS,36.3 µM
same,GI50,MDA-MB-435,18.9 µM
same,TGI,MDA-MB-435,38.4 µM
same,GI50,UACC-257 melanoma,15.8 µM
same,TGI,UACC-257 melanoma,31.6 µM
same,GI50,A549 NSCLC,19.3 µM
same,TGI,A549 NSCLC,41.1 µM
same,GI50,RPMI-8226 leukemia,25.5 µM
same,TGI,RPMI-8226 leukemia,70 µM
same,GI50,K-562 leukemia,6.78 µM
same,TGI,K-562 leukemia,66.5 µM
same,GI50,LOX IMVI melanoma,10.1 µM
same,TGI,LOX IMVI melanoma,23.4 µM
same,GI50,NCI-H460 lung,18.3 µM
same,TGI,NCI-H460 lung,40.8 µM
same,GI50,CCRF-CEM leukemia,19.2 µM
same,TGI,CCRF-CEM leukemia,52.2 µM
same,GI50,SF-539 CNS,19.2 µM
same,TGI,SF-539 CNS,34.4 µM
same,GI50,SNB-19 CNS,12.5 µM
same,TGI,SNB-19 CNS,25.5 µM
same,GI50,SK-OV-3 ovarian,18.4 µM
same,TGI,SK-OV-3 ovarian,32.3 µM
same,GI50,U251 CNS,15.2 µM
same,TGI,U251 CNS,29 µM
same,GI50,SR leukemia,15.3 µM
same,TGI,SR leukemia,46.6 µM
same,GI50,SK-MEL-2 melanoma,23.2 µM
same,TGI,SK-MEL-2 melanoma,41.7 µM
same,GI50,RXF 393 renal,11.9 µM
same,TGI,RXF 393 renal,24.5 µM
same,GI50,UO-31 renal,1970 nM
same,TGI,UO-31 renal,4.04 µM
same,GI50,HOP-92 NSCLC,18.3 µM
same,TGI,HOP-92 NSCLC,35 µM
same,GI50,OVCAR-3 ovarian,17.8 µM
same,TGI,OVCAR-3 ovarian,32.5 µM
same,GI50,IGROV1 ovarian,18 µM
same,TGI,IGROV1 ovarian,45.1 µM
same,GI50,SK-MEL-5 melanoma,13 µM
same,TGI,SK-MEL-5 melanoma,25.7 µM
same,GI50,KM12 colon,14.8 µM
same,TGI,KM12 colon,29.6 µM
same,GI50,BT-549 breast,18.7 µM
same,TGI,BT-549 breast,32.8 µM
same,GI50,CAKI-1 renal,2050 nM
same,TGI,CAKI-1 renal,4.3 µM
same,GI50,HL-60(TB) leukemia,19.7 µM
same,TGI,HL-60(TB) leukemia,47.6 µM
same,GI50,HCT-116 colon,12.9 µM
same,TGI,HCT-116 colon,25.7 µM
same,GI50,HCC-2998 colon,11 µM
same,TGI,HCC-2998 colon,24 µM
same,GI50,EKVX NSCLC,18.5 µM
same,TGI,EKVX NSCLC,38.1 µM
same,GI50,NCI-H522 lung,16.5 µM
same,TGI,NCI-H522 lung,33.5 µM
same,GI50,NCI-H23 lung,16.5 µM
same,TGI,NCI-H23 lung,33.5 µM
same,GI50,MDA-MB-231 breast,16.1 µM
same,TGI,MDA-MB-231 breast,31.1 µM
same,GI50,OVCAR-8 ovarian,17.7 µM
same,TGI,OVCAR-8 ovarian,36.8 µM
same,GI50,MOLT-4 leukemia,28.5 µM
same,TGI,MOLT-4 leukemia,69.5 µM
same,GI50,HOP-62 NSCLC,15.8 µM
same,TGI,HOP-62 NSCLC,29.5 µM
same,GI50,PC-3 prostate,19.1 µM
same,TGI,PC-3 prostate,37.5 µM
same,GI50,A498 renal,38.6 µM
same,TGI,A498 renal,> 100 µM
same,GI50,DU-145 prostate,13.3 µM
same,TGI,DU-145 prostate,26.4 µM
same,GI50,786-0 renal,19.9 µM
same,TGI,786-0 renal,36.8 µM
same,GI50,HS 578T breast,26 µM
same,TGI,HS 578T breast,89.1 µM
same,GI50,SF-295 CNS,18.5 µM
same,TGI,SF-295 CNS,37.9 µM
same,GI50,TK-10 renal,18.9 µM
same,TGI,TK-10 renal,34.4 µM
same,GI50,HCT-15 colon,5.91 µM
same,TGI,HCT-15 colon,23.3 µM
same,GI50,SW-620 colon,12.8 µM
same,TGI,SW-620 colon,28.6 µM
same,GI50,OVCAR-4 ovarian,2020 nM
same,TGI,OVCAR-4 ovarian,3.9 µM
same,GI50,MALME-3M melanoma,21 µM
same,TGI,MALME-3M melanoma,44.9 µM
same,GI50,T-47D breast,13.5 µM
same,TGI,T-47D breast,35.1 µM
